Measured values: publication PMC11834182 (Parasites & Vectors, 2025)
Where two headings read alike, the source gives them in different places.

Key:
[1] = target: T1, rPpAChE1 (Phlebotomus papatasi, UniProt M1F887); assay: biochemical; parameters: gene AChE; PpAChE1 cDNA in pBlueBac4.5/V5-His, baculovirus expression in Sf21 cells, expression supernatant; species or system Sf21 (expression host)
[2] = tested on: CC(=O)SCC[N+](C)(C)C; assay: cells, lysate or membranes; conditions: pH 7.0
[3] = target: T1, rPpAChE1; assay: biochemical; parameters: gene AChE

## CCOC(=O)CC(SP(=O)(OC)OC)C(=O)OCC (stereo not shown) [Maloxon]
[1]
  IC50: 44 nM

## rPpAChE1 (Phlebotomus papatasi)
[2]
  Km: 123 ± 25 µM
  Vmax: 74 ± 6.7 µmol/min/mg

## c1ccc2c(NCCCCCCCNc3c4c(nc5ccccc35)CCCC4)c3c(nc2c1)CCCC3 [bis(7)-tacrine]
[3]
  IC50: 4 nM
